This note sets out measurements from patent US20240239790A1, “7-Morpholino-1,6-Naphthyridin-5-yl Derivatives and Pharmaceutical Compositions Thereof Useful as DNA-PK Inhibitor” (adMare Therapeutics Society, priority 2021, published 2024).

Read-outs that look alike come from different tables or passages of the source.

Data set [1] relates to pH2AX induction in HCT116 ATM-/- multicellular tumour spheroids. In words: Prodrug Radiation Sensitization in Multicellular Tumour Spheroids, inhibition of pH2AX induction following radiation. The conditions noted are these: Homo sapiens, HCT-116, 20 Gy. In kind it is cell-based. The method in brief:
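Endpoint: pH2AX (ser 139) or pDNA-PK (ser 2056) in cryosections fixed 1 or 2 h after 20 Gy, comparing oxygenated outer with hypoxic inner layers. Spheroids of ~0.5 mm (HCT116, FaDu; ATM-deficient cells used) held at 20% or 5% O2, 37 °C, stirred. Prodrug range 3.5 nM–10 μM.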

Data set [2] deals with T1, DNA-PK phosphorylation at Serine 2056 (Homo sapiens, UniProt P78527).
T1 construct: FaDu cells were purchased from ATCC; host or cells: FaDu
In words: Cellular Assay for Inhibition of DNA-PK Phosphorylation at Serine 2056 in FaDu cells (sandwich ELISA, neocarzinostatin). Format: cell-based. The conditions noted are these: pSer2056 DNA-PK, Table 3. Summed up:
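pSer2056 and total DNA-PK were measured by sandwich ELISA in BCA-normalised FaDu lysates. Cells had 1 h compound exposure (0.3% DMSO), then 2 h with 1 μg/mL final neocarzinostatin. IC50 was fitted (variable slope) to % inhibition scaled against NCS-stimulated and DMSO-only controls.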

Another data set concerns FaDu cell line. In words: Prodrug Activation in Hypoxic Stirred Tumour Cell Suspensions. Particulars: 10 μM, 4 hours.
[3] abbreviates: 5% O2, inner layers, read-out: Prodrug 5% O2 Inner layers EC50.
[4] abbreviates: 5% O2, outer layers, read-out: Prodrug 5% O2 Outer layers EC50.
Where [5] appears, read: 20% O2, outer layers, read-out: Prodrug 20% O2 Outer layers EC50.

With `CC(c1cnc([N+](=O)[O-])n1C)N(c1cnc2cc(N3CCOCC3)nc(O[C@H]3CC[C@@H](Nc4ncc(OCCN(C)C)cn4)CC3)c2c1)S(C)(=O)=O` (stereo partly drawn) [LFA2061, N-[5-[4-[[5-[2-(dimethylamino)ethoxy]pyrimidin-2-yl]amino]cyclohexoxy]-7-morpholino-1,6-naphthyridin-3-yl]-N-[1-(3-methyl-2-nitro-imidazol-4-yl)ethyl]methanesulfonamide], the values for the EC50 in data set [1] (setting [3]), in data set [1] (setting [4]) and in data set [1] (setting [5]) were 0.5 to 1 µM, 1 to 10 µM and 10 to 100 µM, respectively. For the same molecule, the IC50 (usually the concentration that gives 50% inhibition) in data set [2] was 10 to 30 µM. Also, the “Fraction of prodrug converted to active form, Hypoxic 0.2% O2” value (shortened to “Fraction … Hypoxic 0.2% O2”) in the data set with FaDu cell line was “B (B is 0.05 to 0.15)”. For the same molecule, the “Fraction of prodrug converted to active form, Oxic 5% O2” value (from here on “Fraction … Oxic 5% O2”) in the data set with FaDu cell line is “D (D is 0 to 0.02)”.
On to `CC(c1cnn(C)c1[N+](=O)[O-])N(c1cnc2cc(N3CCOCC3)nc(O[C@H]3CC[C@@H](Nc4ncc(OCCN5CCOCC5)cn4)CC3)c2c1)S(C)(=O)=O` (stereo partly drawn) [LFA2077, N-[1-(1-methyl-5-nitro-pyrazol-4-yl)ethyl]-N-[7-morpholino-5-[4-[[5-(2-morpholinoethoxy)pyrimidin-2-yl]amino]cyclohexoxy]-1,6-naphthyridin-3-yl]methanesulfonamide], for which the EC50 – broadly, the concentration giving half of the maximal effect – was 0.01 to 0.5 µM in data set [1] (setting [3]), 0.5 to 1 µM in data set [1] (setting [4]) and 0.01 to 0.5 µM in data set [1] (setting [5]). Further, the IC50 in data set [2] was in the range of 1 to 10 µM. Moreover, the “Fraction … Hypoxic 0.2% O2” value in the data set on FaDu cell line is “B (B is 0.05 to 0.15)”. In the data set on FaDu cell line, the “Fraction … Oxic 5% O2” value was “B (B is 0.05 to 0.15)”.
In the case of `Cn1c(CN(c2cnc3cc(N4CCOCC4)nc(OC4CCC(Nc5ncc(N6CCN(CC(F)(F)F)CC6)cn5)CC4)c3c2)S(C)(=O)=O)cnc1[N+](=O)[O-]` (stereo not drawn) [LFA2045, N-[(3-methyl-2-nitro-imidazol-4-yl)methyl]-N-[7-morpholino-5-[4-[[5-[4-(2,2,2-trifluoroethyl)piperazin-1-yl]pyrimidin-2-yl]amino]cyclohexoxy]-1,6-naphthyridin-3-yl]methanesulfonamide], the EC50 in data set [1] (setting [3]), in data set [1] (setting [4]) and in data set [1] (setting [5]) was 1 to 10 µM each time. Moreover, the 50% inhibitory concentration (IC50) in data set [2] was in the range of 10 to 30 µM. Further, the “Fraction … Hypoxic 0.2% O2” value with FaDu cell line was “D (D is 0 to 0.02)”. In addition, in the data set with FaDu cell line, the “Fraction … Oxic 5% O2” value is listed as “D (D is 0 to 0.02)”.
Turning to `Cn1c(COc2cnc3cc(N4CCOCC4)nc(O[C@H]4CC[C@@H](Nc5ncc(OCCN6CCOCC6)cn5)CC4)c3c2)cnc1[N+](=O)[O-]` [LFA2069, N-[4-[[3-[(3-methyl-2-nitro-imidazol-4-yl)methoxy]-7-morpholino-1,6-naphthyridin-5-yl]oxy]cyclohexyl]-5-(2-morpholinoethoxy)pyrimidin-2-amine], the results for the EC50 in data set [1] (setting [3]), in data set [1] (setting [4]) and in data set [1] (setting [5]) were 0.01 to 0.5 µM, 1 to 10 µM and 1 to 10 µM, respectively. The molecule further gave an IC50 in data set [2] of 10 to 30 µM. Besides, in the data set on FaDu cell line, the “Fraction … Hypoxic 0.2% O2” value is recorded as “A (A is 0.15 to 1)”. In the data set with FaDu cell line, the “Fraction … Oxic 5% O2” value is reported as “C (C is 0.02 to 0.05)”.
With `Cn1c(CN(c2cnc3cc(N4CCOCC4)nc(O[C@H]4CC[C@@H](Nc5cncc(C(F)(F)F)n5)CC4)c3c2)S(C)(=O)=O)cnc1[N+](=O)[O-]` [LFA2101, N-[(3-methyl-2-nitro-imidazol-4-yl)methyl]-N-[7-morpholino-5-[4-[[6-(trifluoromethyl)pyrazin-2-yl]amino]cyclohexoxy]-1,6-naphthyridin-3-yl]methanesulfonamide], the EC50 in data set [1] (setting [3]), in data set [1] (setting [4]) and in data set [1] (setting [5]) was 10 to 100 µM each time. For the same molecule, in data set [2], the IC50 was 10 to 30 µM. For the same molecule, the “Fraction … Hypoxic 0.2% O2” value in the data set on FaDu cell line is given as “C (C is 0.02 to 0.05)”. For the same molecule, the “Fraction … Oxic 5% O2” value in the data set with FaDu cell line is reported as “D (D is 0 to 0.02)”.
With `Cc1cc(C)nc(N[C@H]2CC[C@@H](Oc3nc(N4CCOCC4)cc4ncc(OCc5cnc([N+](=O)[O-])n5C)cc34)CC2)n1` [LFA2081, 4,6-dimethyl-N-[4-[[3-[(3-methyl-2-nitro-imidazol-4-yl)methoxy]-7-morpholino-1,6-naphthyridin-5-yl]oxy]cyclohexyl]pyrimidin-2-amine], the EC50 in data set [1] (setting [3]) lay in the range of 0.5 to 1 µM; in data set [1] (setting [4]) it was 1 to 10 µM; in data set [1] (setting [5]) it was 1 to 10 µM. In addition, the IC50 in data set [2] lay in the range of 10 to 30 µM. Further, the “Fraction … Hypoxic 0.2% O2” value in the data set with FaDu cell line was “B (B is 0.05 to 0.15)”. Also, the “Fraction … Oxic 5% O2” value in the data set with FaDu cell line is “B (B is 0.05 to 0.15)”.
As for `CN(C)Cc1cnc(N[C@H]2CC[C@@H](Oc3nc(N4CCOCC4)cc4ncc(OCc5cnc([N+](=O)[O-])n5C)cc34)CC2)nc1` [LFA2086, 5-[(dimethylamino)methyl]-N-[4-[[3-[(3-methyl-2-nitro-imidazol-4-yl)methoxy]-7-morpholino-1,6-naphthyridin-5-yl]oxy]cyclohexyl]pyrimidin-2-amine], the concentration for a half-maximal effect (EC50) in data set [1] (setting [3]), in data set [1] (setting [4]) and in data set [1] (setting [5]) was 1 to 10 µM each time. The molecule also showed an IC50 in data set [2] of 10 to 30 µM. Further, the “Fraction … Hypoxic 0.2% O2” value in the data set with FaDu cell line is “D (D is 0 to 0.02)”. In the data set on FaDu cell line, the “Fraction … Oxic 5% O2” value was “D (D is 0 to 0.02)”.
Regarding `Cn1c(COc2cnc3cc(N4CCOCC4)nc(O[C@H]4CC[C@@H](N(C)c5ncccn5)CC4)c3c2)cnc1[N+](=O)[O-]` [LFA2071, N-methyl-N-[4-[[3-[(3-methyl-2-nitro-imidazol-4-yl)methoxy]-7-morpholino-1,6-naphthyridin-5-yl]oxy]cyclohexyl]pyrimidin-2-amine], the EC50 in data set [1] (setting [3]) is 0.01 to 0.5 µM; in data set [1] (setting [4]), 1 to 10 µM; in data set [1] (setting [5]), 1 to 10 µM. The IC50 in data set [2] is 10 to 30 µM. Moreover, in the data set on FaDu cell line, the “Fraction … Hypoxic 0.2% O2” value was “A (A is 0.15 to 1)”. In addition, in the data set on FaDu cell line, the “Fraction … Oxic 5% O2” value is “B (B is 0.05 to 0.15)”.
In the case of `CC(c1cnc([N+](=O)[O-])n1C)N(c1cnc2cc(N3CCOCC3)nc(O[C@H]3CC[C@@H](Nc4ncc(OCCN5CCN(C)CC5)cn4)CC3)c2c1)S(C)(=O)=O` (stereo partly drawn) [LFA2060, N-[1-(3-methyl-2-nitro-imidazol-4-yl)ethyl]-N-[5-[4-[[5-[2-(4-methylpiperazin-1-yl)ethoxy]pyrimidin-2-yl]amino]cyclohexoxy]-7-morpholino-1,6-naphthyridin-3-yl]methanesulfonamide], the EC50 lay within 0.5 to 1 µM in data set [1] (setting [3]), 1 to 10 µM in data set [1] (setting [4]) and 10 to 100 µM in data set [1] (setting [5]). In data set [2], the IC50 fell in the range of 10 to 30 µM. For the same molecule, the “Fraction … Hypoxic 0.2% O2” value with FaDu cell line was “A (A is 0.15 to 1)”. In the data set on FaDu cell line, the “Fraction … Oxic 5% O2” value was “D (D is 0 to 0.02)”.
Turning to `Cn1c(CN(c2cnc3cc(N4CCOCC4)nc(O[C@H]4CC[C@@H](Nc5nccnc5C#N)CC4)c3c2)S(C)(=O)=O)cnc1[N+](=O)[O-]` [LFA2102, N-[5-[4-[(3-cyanopyrazin-2-yl)amino]cyclohexoxy]-7-morpholino-1,6-naphthyridin-3-yl]-N-[(3-methyl-2-nitro-imidazol-4-yl)methyl]methanesulfonamide], the EC50 fell in the range of 0.01 to 0.5 µM in data set [1] (setting [3]), 1 to 10 µM in data set [1] (setting [4]) and 1 to 10 µM in data set [1] (setting [5]). Further, the IC50 in data set [2] lay within 10 to 30 µM. Also, the “Fraction … Hypoxic 0.2% O2” value in the data set on FaDu cell line is on record as “C (C is 0.02 to 0.05)”. In addition, in the data set on FaDu cell line, the “Fraction … Oxic 5% O2” value is “D (D is 0 to 0.02)”.
Regarding `CC(NS(=O)(=O)c1cnc2cc(N3CCOCC3)nc(O[C@H]3CC[C@@H](Nc4ncc(OCCN5CCN(C)CC5)cn4)CC3)c2c1)c1cnc([N+](=O)[O-])n1C` (stereo partly drawn) [LFA2090, N-[1-(3-methyl-2-nitro-imidazol-4-yl)ethyl]-5-[4-[[5-[2-(4-methylpiperazin-1-yl)ethoxy]pyrimidin-2-yl]amino]cyclohexoxy]-7-morpholino-1,6-naphthyridine-3-sulfonamide], the EC50 in data set [1] (setting [3]), in data set [1] (setting [4]) and in data set [1] (setting [5]) was 10 to 100 µM in each case. In addition, the IC50 in data set [2] lay within 10 to 30 µM. For the same molecule, the “Fraction … Hypoxic 0.2% O2” value in the data set on FaDu cell line is listed as “D (D is 0 to 0.02)”. In addition, in the data set with FaDu cell line, the “Fraction … Oxic 5% O2” value was “D (D is 0 to 0.02)”.
